Reference: patent US20130023469A1, “LEPTIN FOR USE IN INCREASING LIVER REGENERATION” (Hadasit Medical Research Services & Development Ltd., priority 2009, published 2013)
Where “and” joins values, the source holds several entries; their conditions need not be identical. Equal entries are not always repeated. Entries after “also recorded” stand apart in the source; their conditions may differ.

Key:
hepatocytes [1] = experiment: Hepatocyte cell size (E-cadherin staining) after partial hepatectomy; type: in vivo, mice
Protocol: (§1) Animal studies and tissue preparation. All animal experiments were performed in accordance with the guidelines of the Institutional Committee for the Use of Animals for Research (IACUC). Mice aged 18 months or older (‘old’ mice) were either purchased from the National Institute of Aging and from Charles River Laboratories or maintained up to the required age in the Specific Pathogen Free (SPF) animal facility at our institution. Mice aged 10-12 months (‘aged’ mice) and 8-week-old ob/ob mice were purchased from Harlan Laboratories. The genetic background of all mice was c57 Black. Pregnancy in ob/ob mice was induced as described previously (Malik et al., 2001). […] Progesterone levels were measured to verify pseudopregnancy induction (Shiotani et al., 1993). […] For measurement of serum prothrombin time, sodium citrate (0.105 M) was added immediately to the blood sample at a ratio of 1:10 (v/v), and values were recorded with a Beckman Coulter ACL 9000 Coagulation Analyzer according to the manufacturer's instructions. […]
Measurement of cell size. […] The numbers of pixels in 100-300 individual hepatocytes for each mouse were scored with ImageJ (NIH) by an observer who was blinded to the treatment group. […] Mean hepatocyte volume was calculated by dividing the hepatocyte volume by the number of hepatocytes. […]

Akt/mTORC1 pathway = experiment: Western blot / phospho-4E-BP analysis of liver for Akt/mTORC1 pathway activation; type: in vivo, mice
Protocol: as §1
Western blot analysis. […] Tissue lysates containing 100 μg protein were separated by 12% SDS-PAGE, and assessed by Western blot analysis by means of sequential probing with the relevant primary antibody and a relevant anti-IgG conjugated to horseradish peroxidase (Jackson ImmunoResearch).

[2] = tested on: old mice after partial hepatectomy; experiment: Post-hepatectomy mortality in old mice; type: in vivo; conditions: female mice aged 18-24 mo, control four out of nine, P=0.014
Protocol: Animal studies and tissue preparation. All animal experiments were performed in accordance with the guidelines of the Institutional Committee for the Use of Animals for Research (IACUC). Mice aged 18 months or older (‘old’ mice) were either purchased from the National Institute of Aging and from Charles River Laboratories or maintained up to the required age in the Specific Pathogen Free (SPF) animal facility at our institution. Mice aged 10-12 months (‘aged’ mice) and 8-week-old ob/ob mice were purchased from Harlan Laboratories. The genetic background of all mice was c57 Black. Pregnancy in ob/ob mice was induced as described previously (Malik et al., 2001). Pseudopregnancy was induced by mating females with vasectomized males and observing for the presence of vaginal plugs. Progesterone levels were measured to verify pseudopregnancy induction (Shiotani et al., 1993). For rapamycin treatment, mice were injected intraperitoneally (i.p.) for 3 consecutive days with rapamycin (0.2 mg/kg body weight diluted in DMSO; LC Laboratories), starting 3 h before the hepatectomy. […] For measurement of serum prothrombin time, sodium citrate (0.105 M) was added immediately to the blood sample at a ratio of 1:10 (v/v), and values were recorded with a Beckman Coulter ACL 9000 Coagulation Analyzer according to the manufacturer's instructions. […]

[3] = tested on: old mice after partial hepatectomy; experiment: Post-hepatectomy blood coagulation (prothrombin time) and locomotor activity tests; type: in vivo; conditions: female mice aged 18-24 mo, compared with nontreated old mice
Protocol: Animal studies and tissue preparation. All animal experiments were performed in accordance with the guidelines of the Institutional Committee for the Use of Animals for Research (IACUC). Mice aged 18 months or older (‘old’ mice) were either purchased from the National Institute of Aging and from Charles River Laboratories or maintained up to the required age in the Specific Pathogen Free (SPF) animal facility at our institution. Mice aged 10-12 months (‘aged’ mice) and 8-week-old ob/ob mice were purchased from Harlan Laboratories. The genetic background of all mice was c57 Black. Pregnancy in ob/ob mice was induced as described previously (Malik et al., 2001). Pseudopregnancy was induced by mating females with vasectomized males and observing for the presence of vaginal plugs. Progesterone levels were measured to verify pseudopregnancy induction (Shiotani et al., 1993). […] For measurement of serum prothrombin time, sodium citrate (0.105 M) was added immediately to the blood sample at a ratio of 1:10 (v/v), and values were recorded with a Beckman Coulter ACL 9000 Coagulation Analyzer according to the manufacturer's instructions. […]
Locomotor activity. This was monitored using a photocell cage, 43.2 cm×43.2 cm (Med Associates), with 16 beam I/R arrays located along each wall of the box. […]

hepatocytes [4] = experiment: BrdU incorporation into hepatocytes (proliferation index) after two-thirds partial hepatectomy; type: in vivo, mice
Protocol: Animal studies and tissue preparation. All animal experiments were performed in accordance with the guidelines of the Institutional Committee for the Use of Animals for Research (IACUC). Mice aged 18 months or older (‘old’ mice) were either purchased from the National Institute of Aging and from Charles River Laboratories or maintained up to the required age in the Specific Pathogen Free (SPF) animal facility at our institution. Mice aged 10-12 months (‘aged’ mice) and 8-week-old ob/ob mice were purchased from Harlan Laboratories. The genetic background of all mice was c57 Black. Pregnancy in ob/ob mice was induced as described previously (Malik et al., 2001). Pseudopregnancy was induced by mating females with vasectomized males and observing for the presence of vaginal plugs. Progesterone levels were measured to verify pseudopregnancy induction (Shiotani et al., 1993). For rapamycin treatment, mice were injected intraperitoneally (i.p.) for 3 consecutive days with rapamycin (0.2 mg/kg body weight diluted in DMSO; LC Laboratories), starting 3 h before the hepatectomy. For PTEN inhibition, bpV(phen) (3.3 μg/g body weight diluted in normal saline; Alexis Biochemicals) was administered i.p. on the day before hepatectomy and once a day for 3 days thereafter. BrdU (100 μl/10 g body weight; Amersham) was injected i.p. at the indicated times before the mice were killed. When indicated, BrdU (#B5002; Sigma) was added to the drinking water (0.8 mg/ml). The mice were allowed to drink ad libitum. For all experiments mice were killed by cervical dislocation. In some cases, a liver sample was removed and ‘snap-frozen’ for protein and RNA analyses. Livers were removed, weighed, photographed, and fixed in formalin overnight, and the next day the entire liver was embedded in paraffin. For measurement of serum prothrombin time, sodium citrate (0.105 M) was added immediately to the blood sample at a ratio of 1:10 (v/v), and values were recorded with a Beckman Coulter ACL 9000 Coagulation Analyzer according to the manufacturer's instructions. For ⅔ partial hepatectomy, virgin or pregnant mice (16-18 days post-coitum unless otherwise specified) were anesthetized, and the median and left lateral lobes of the liver were removed, as described (Ben Moshe et al., 2007).
Proliferation index. The percentage of BrdU-positive hepatocyte nuclei was assessed using the Kisight module of the Ariol SL 50® automated scanning microscope and image analysis system, according to the manufacturer's instructions. The same gating parameters were used for all sections. Ten fields in each liver were scored and the average percentage was calculated.
Immunohistochemistry and immunofluorescence. […]

hepatocytes [5] = conditions: previous studies; cited from earlier work
[6] = tested on: H35 cells (rat hepatoma cell line); experiment: Western blot of H35 cells treated with leptin, IL6 or both; type: cell-based; conditions: starvation for 16 h then treated
Protocol: Western blot analyses of hepatoma rat cells, that were under starvation for 16 h and then treated with: bpV(phen), leptin, IL-6 and combination of IL-6 and Leptin.
Leptin is an adipokine of the IL6 family and its receptor signals through both the JAK/STAT and the Akt/mTORC1 pathways. Its origin is placental in humans, maternal in mice, and in late pregnancy it is increased by up to 25-fold. To test whether pregnancy-induced leptin accumulation contributes to the proliferation-to-hypertrophy switch in pregnancy we used ob/ob mice, which carry a loss-of-function mutation in leptin. Indeed, hepatocyte proliferation was not decreased in pregnant versus non-pregnant ob/ob mice (FIG. 13A). Moreover, liver regeneration in pregnant ob/ob mice was not accompanied by hepatocyte hypertrophy (FIGS. 13B-D). These findings confirmed that maternal leptin is necessary for the pregnancy-induced module switch. Furthermore, the phosphorylation state of components of the Akt/mTORC1 pathway was not increased in pregnant relative to nonpregnant mice (FIG. 13E FIG. 4e). […] Cells were harvested and protein extracts were analyzed by Western blot analysis. […] To test whether leptin is sufficient to activate the hypertrophy module, we administered leptin or vehicle to nonpregnant female mice prior to and after hepatectomy (FIG. 15A) and assessed liver growth and proliferation.

liver regeneration = experiment: Prolactin administration to nonpregnant mice, liver regeneration; type: in vivo; conditions: data not shown
From the text: In searching for the upstream signals mediating the pregnancy-induced switch, we identified four candidate hormones that are elevated in pregnancy and can activate the Akt/mTORC1 pathway: growth hormone (and its variants), prolactin, leptin and estrogen.

[7] = young nonpregnant mice treated with bpV(phen), after partial hepatectomy

With O.O.O.OO.OO.[K+].[OH-].[V].c1cnc2c(c1)ccc1cccnc12 [bpV(phen), bisperoxovanadium 1,10-phenanthroline] the “growth in the mean cross-sectional area” value (hepatocytes [1]; [7]) was 115%, the “activation of Akt/mTORC1 pathway (phosphorylated Akt and 4E-BP1, Western blot)” value (Akt/mTORC1 pathway; liver extracts of young mice treated with bpV(phen)) was “activates the Akt/mTORC1 pathway” and the mortality rate [2] was “zero out of nine”. For the same molecule, the “recovery from partial hepatectomy (blood coagulation and locomotor activity)” value [3] was “significant improvement in recovery from partial hepatectomy”, the “proliferation index” value (hepatocytes [4]; [7]) was “low proliferation index” and the BrdU-labeled hepatocytes (hepatocytes [4]; young nonpregnant mice, 4 d after partial hepatectomy, continuous BrdU, bpV(phen) 3.3 μg/g i.p., untreated 92±1%) was 8±2%.

With CO[C@H]1C[C@@H]2CC[C@@H](C)[C@@](O)(O2)C(=O)C(=O)N2CCCC[C@H]2C(=O)O[C@H]([C@H](C)C[C@@H]2CC[C@@H](O)[C@H](OC)C2)CC(=O)[C@H](C)/C=C(\C)[C@@H](O)[C@@H](OC)C(=O)[C@H](C)C[C@H](C)/C=C/C=C/C=C/1C [rapamycin] the cell size (hepatocytes [1]; aged pregnant mice, 2 d after partial hepatectomy, rapamycin-treated, vehicle 527±2) was 422±1 μ^2 and the “hepatocyte proliferation rate (BrdU-labeled)” value (hepatocytes [4]; aged pregnant mice, 2 d after partial hepatectomy, rapamycin 0.2 mg/kg i.p. for 3 days, vehicle 2%±1%) was 25±8% and 25%±8%.

For Estrogen, the “hepatocyte proliferation after partial hepatectomy” value (hepatocytes [5]) is listed as “increase hepatocyte proliferation after partial hepatectomy”.

For “growth hormone: hormone elevated in pregnancy; not tested by the applicant, literature result only”, the “hepatocyte proliferation after partial hepatectomy” value (hepatocytes [5]) is listed as “increase hepatocyte proliferation after partial hepatectomy”.

B1: leptin: adipokine of the IL6 family; mouse leptin was injected in mice (protein, UniProt P41160 22-167, looked up)
Leptin: VPIQKVQDDTKTLIKTIVTRINDISHTQSVSAKQRVTGLDFIPGLHPILSLSKMDQTLAVYQQVLTSLPSQNVLQIANDLENLRDLLHLLAFSKSCSLPQTSGLQKPESLDGVLEASLYSTEVVALSRLQGSLQDILQQLDVSPEC
In the case of B1, the “Akt pathway activation (phosphorylation of S6 kinase and 4E-BP)” value [6] is given as “activates the Akt pathway; also recorded: phosphorylation of both S6 kinase and 4E-BP”, the “hepatocyte proliferation after partial hepatectomy” value (hepatocytes [5]) is given as “attenuates hepatocyte proliferation after partial hepatectomy” and the “Akt pathway activation (phosphorylation of 4E-BP)” value (Akt/mTORC1 pathway; nonpregnant female mice, leptin S.C. 1 mg/kg, two days after partial hepatectomy) is given as “activating the Akt pathway”. For the same molecule, the “hepatocyte proliferation (BrdU-positive cells)” value (hepatocytes [4]; nonpregnant female mice, leptin S.C. 1 mg/kg from two days before to two days after partial hepatectomy) was “marked reduction in hepatocyte proliferation”.

B2: prolactin: hormone elevated in pregnancy that can activate the Akt/mTORC1 pathway (protein, UniProt P01236 29-227, looked up)
Prolactin: LPICPGGAARCQVTLRDLFDRAVVLSHYIHNLSSEMFSEFDKRYTHGRGFITKAINSCHTSSLATPEDKEQAQQMNQKDFLSLIVSILRSWNEPLYHLVTEVRGMQEAPEAILSKAVEIEEQTKRLLEGMELIVSQVHPETKENEIYPVWSGLPSLQMADEESRLSAYYNLLHCLRRDSHKIDNYLKLLKCRIIHNNNC
With B2 the “effect on liver regeneration” value (liver regeneration) was “no effect on liver regeneration”.
